{"source": "patent US20210122771A1", "about": "“NEW MOLECULAR TWEEZERS AGAINST NEUROLOGICAL DISORDERS AND VIRAL INFECTIONS” (The Regents of the University of California, priority 2018, published 2021)", "key": {"[1]": {"assay": "CellTiter-Glo cell viability assay on Vero E6 cells", "type": "cell-based", "settings": "African green monkey, CellTiter-Glo (ATP)", "protocol": "(§1) FIG. 1, panels A and B, illustrates the results of a cell viability assay with the new molecular tweezers. Indicated concentrations of compounds were added to the cells and incubated for 2 days before […]-GLO® assay (Promega) was performed on TZM-bl cells (HIV-1 target cells) (panel A), or on Vero E6 (ZIKV target cells) (panel B). The experiment was performed in triplicates, raw data were normalized to untreated cells. Data represent mean±SD (n=3).\n(§2) To determine the maximally tolerated concentrations of these derivatives in cell culture and to exclude cytotoxic effects in viral infectivity assays, a CellTiter-Glo® assay (Promega) was performed. This assay quantifies the amount of intracellular ATP. The compounds were directly added to TZM-bl cells (a HeLa derived HIV-1 reporter cell line TZM-bl; 20,000 cells/well, FIG. 1, panel A) or Vero E6 cells (a Zika virus (=ZIKV) permissive cell line; 12,000 cells/well, FIG. 1, panel B). Cell viability was quantified two days later by measuring ATP levels."}, "[2]": {"assay": "CellTiter-Glo cell viability assay on TZM-bl cells", "type": "cell-based", "settings": "human, CellTiter-Glo (ATP)", "protocol": "as §1, §2"}, "ZIKV strain MR766": {"system": "ZIKV strain MR766", "assay": "ZIKV infectivity (MTT) assay on Vero E6 cells", "type": "cell-based, Zika virus", "protocol": "FIG. 2, panels A and B, illustrates the results of a ZIKV infectivity (MTT) assay with the new molecular tweezers on Vero E6 cells. […] After 3-4 days, the ZIKV induced cytopathic effect was quantified using the MTT assay.\n20-μl of MTT solution (5 mg/ml in PBS) were added to 200 μl cells. Following a 3-h incubation at 37° C., cell-free supernatants were discarded and formazan crystals were dissolved in 100 μl of a 1:2 mixture of dimethyl sulfoxide and ethanol. Absorption was measured at 490 nm and baseline corrected at 650 nm using a VMax Kinetic ELISA microplate reader (Molecular Devices). To determine infection rates, sample values were subtracted from untreated control set to 100%. Error bars are standard deviations of replicates (FIG. 2, panels A and B). […] The selectivity index (SI) (Table 12) is calculated for each compound by dividing its CC50 value by the IC50 value."}, "Aβ42-induced toxicity": {"system": "Aβ42-induced toxicity", "assay": "Inhibition of Aβ42 toxicity in differentiated PC-12 cells (MTT/LDH)", "type": "cell-based, rat", "settings": "Rattus norvegicus, PC-12, read-out: Inhibition of Aβ42 toxicity, IC50 (MTT)", "protocol": "(§3) The highest concentration tested was 100 μM. Non-toxic compounds then were tested for their ability to inhibit the toxicity of 10 μM Aβ42 in the same assay. The parent compound 1 was used as a control in both cases."}, "[3]": {"system": "differentiated rat pheochromocytoma (PC-12) cells", "assay": "Self-toxicity in differentiated PC-12 cells (MTT and/or LDH)", "settings": "MTT and/or LDH assays, highest concentration tested 100 μM", "protocol": "as §3"}, "CCR5-tropic HIV-1 strain": {"system": "CCR5-tropic HIV-1 strain", "assay": "HIV-1 infectivity assay on TZM-bl cells", "type": "cell-based", "protocol": "FIG. 3, panels A and B, illustrates the results of an HIV-1 infectivity assay with new tweezers on TZM-bl cells. CR5-tropic HIV-1 strain (20 ng/ml p24 antigen) was incubated for 10 min at 37° C. with indicated concentrations of the different compounds before these mixtures were used to infect TZM-bl cells. Three days later, infection rates were determined by measuring β-galactosidase activity.\nInfection rates were determined 3 days post infection by detecting β-galactosidase activity in cellular lysates using the Tropix Gal-Screen kit (Applied Biosystems) and an Orion microplate luminometer (Berthold). Values represent % infection (mean) compared to buffer control (FIG. 3, panels A and B). […] Half-maximal inhibitory concentrations (IC50 values), were calculated. […] The selectivity index (SI) is calculated for each compound by dividing its CC50 value by its IC50 value (Table 12)."}, "Full 24-h PK profile": {"assay": "Full 24-h PK profile", "type": "in vivo, mice", "settings": "24-h profile; for Brain AUC / AUC / half-life: 7 time points; for AUC / half-life / bioavailability: mouse, in vivo; for AUC: read-out: Blood AUC; for bioavailability: read-out: Blood Bioavailability", "protocol": "Based on the 2-time-point screen results, a full 24-h PK profile has been obtained for compounds 13 and 14. In these experiments, the blood and brain levels were measured at 7 time points—0.3, 0.6, 1, 2, 4, 8, and 24 h. Data for 1 are given for reference."}, "RGD": {"target": "RGD", "type": "binding", "settings": "fluorometric titration in aqueous buffer at neutral pH; read-out: Dissociation constant Kd, RGD"}, "[4]": {"system": "enveloped viruses such as HIV-1 and HSV-2", "settings": "cited from earlier work"}, "KAA": {"target": "KAA", "type": "binding", "settings": "fluorometric titration in aqueous buffer at neutral pH; read-out: Dissociation constant Kd, KAA"}, "[5]": {"assay": "PK screening in mice, three routes, two time points", "settings": "male, mouse, in vivo", "protocol": "Each compound was administered to the mice at 2 mg/kg intravenously (I.V.), 2 mg/kg subcutaneously (S.C.), or 10 mg/kg orally (P.O.)."}, "[6]": {"settings": "CC50 value divided by IC50 value"}}, "note": "Like-named read-outs stand apart in the source and are kept apart here.", "data": [{"smiles": "O=P(O)(O)Oc1c2c(c(OP(=O)(O)O)c3c1C1CC3c3cc4c(cc31)C1CC4c3ccccc31)C1CC2c2cc3c(cc21)C1CC3c2ccccc21", "note": "[Compound 1, CLR01, reference compound]", "values": [{"measurement": "CC50 at 2 days", "setting": "[1]", "value": 584, "unit": "µM"}, {"measurement": "CC50 at 2 days", "setting": "[2]", "value": 964, "unit": "µM"}, {"measurement": "SI (Vero E6/ZIKV)", "setting": "ZIKV strain MR766; [6]", "value": 13}, {"measurement": "IC50", "setting": "ZIKV strain MR766; Zika virus, Vero C1008, read-out: IC50 ZIKV", "value": 46, "unit": "µM"}, {"measurement": "IC50", "setting": "Aβ42-induced toxicity", "value": 69, "unit": "µM"}, {"measurement": "Self-toxicity", "setting": "[3]", "value": "Non-toxic"}, {"measurement": "SI (TZM-bl/HIV-1)", "setting": "CCR5-tropic HIV-1 strain; [6]", "value": 26}, {"measurement": "IC50", "setting": "CCR5-tropic HIV-1 strain; Human immunodeficiency virus 1, TZM-bl, read-out: IC50 HIV-1", "value": 37, "unit": "µM"}, {"measurement": "LogBB", "setting": "Full 24-h PK profile; I.V.", "value": "−3.62"}, {"measurement": "Brain AUC", "setting": "Full 24-h PK profile; I.V.", "value": 1.63}, {"measurement": "Brain AUC", "setting": "Full 24-h PK profile; P.O.", "value": 0}, {"measurement": "LogBB", "setting": "Full 24-h PK profile; S.C.", "value": 0.34}, {"measurement": "AUC", "setting": "Full 24-h PK profile; iv, I.V.", "value": 6.8, "unit": "µg·h/mL"}, {"measurement": "half-life", "setting": "Full 24-h PK profile; iv, I.V., read-out: Blood T1/2 (converted)", "value": 1.8, "unit": "h"}, {"measurement": "half-life", "setting": "Full 24-h PK profile; iv, I.V., read-out: Brain T1/2 (converted)", "value": 4, "unit": "h"}, {"measurement": "AUC", "setting": "Full 24-h PK profile; po, P.O.", "value": 0.00894, "unit": "µg·h/mL"}, {"measurement": "half-life", "setting": "Full 24-h PK profile; po, P.O., read-out: Blood T1/2 (converted)", "value": 1.3, "unit": "h"}, {"measurement": "bioavailability", "setting": "Full 24-h PK profile; po, P.O.", "value": 0.1, "unit": "%"}, {"measurement": "AUC", "setting": "Full 24-h PK profile; sc, S.C.", "value": 4.74, "unit": "µg·h/mL"}, {"measurement": "half-life", "setting": "Full 24-h PK profile; sc, S.C., read-out: Blood T1/2 (converted)", "value": 1.05, "unit": "h"}, {"measurement": "half-life", "setting": "Full 24-h PK profile; sc, S.C., read-out: Brain T1/2 (converted)", "value": 0.9, "unit": "h"}, {"measurement": "bioavailability", "setting": "Full 24-h PK profile; sc, S.C.", "value": 69.7, "unit": "%"}, {"measurement": "Kd", "setting": "RGD", "value": 86, "unit": "µM"}, {"measurement": "concentrations required to inhibit enveloped viruses such as HIV-1 and HSV-2", "setting": "[4]; Lump et al. (2015) eLife, 4: e05397", "value": "median micromolar range"}, {"measurement": "antiviral activity in the presence of serum", "setting": "[4]; Rocker et al. (2018) Antiviral Res. 152: 26-35", "value": "inhibited"}, {"measurement": "Kd", "setting": "KAA", "value": 30, "unit": "µM"}, {"measurement": "bioavailability at 40 min", "setting": "[5]; 2 mg/kg", "value": 101, "unit": "%"}, {"measurement": "bioavailability at 4 h", "setting": "[5]; 2 mg/kg", "value": 86.6, "unit": "%"}, {"measurement": "bioavailability at 40 min", "setting": "[5]; 10 mg/kg", "value": 0.5, "unit": "%"}, {"measurement": "bioavailability at 4 h", "setting": "[5]; 10 mg/kg", "value": 0, "unit": "%"}, {"measurement": "Kp at 40 min", "setting": "[5]; iv, 2 mg/kg", "value": 0}, {"measurement": "Kp at 4 h", "setting": "[5]; iv, 2 mg/kg", "value": 0.002}, {"measurement": "Kp at 40 min", "setting": "[5]; po, 10 mg/kg", "value": 0}, {"measurement": "Kp at 4 h", "setting": "[5]; po, 10 mg/kg", "value": 0}, {"measurement": "Kp at 40 min", "setting": "[5]; sc, 2 mg/kg", "value": 0}, {"measurement": "Kp at 4 h", "setting": "[5]; sc, 2 mg/kg", "value": 0}]}]}
